Experimental data taken from US20200399238A1, “THERAPEUTIC AURONES” (MIDDLE TENNESSEE STATE UNIVERSITY, priority 2016, published 2020).
Read-outs that look alike come from different tables or passages of the source.

Key:
[1] = system: C. albicans (ATCC strain 90028); assay: Antifungal microdilution broth assay (PrestoBlue), C. albicans; type: cell-based, Candida albicans; settings: 100 μM; for inhibition at 100 µM: Candida albicans, ATCC90028, Table 4A, read-out: C. albicans inhibition (at 100 μM)
Description: Sigma-Aldrich) was used as the base medium for testing. […] solution of morpholinepropanesulfonic acid (MOPS; Sigma-Aldrich) was added to the RPMI to a final concentration of 0.165 M for buffering (RPMI-MOPS). This medium was adjusted to a pH of 7.0 with 10 M NaOH and filter sterilized. C. albicans (ATCC strain 90028), C. [NT] strain 66032), and C. tropicalis (ATCC strain 750) were cultured on potato dextrose agar (Sigma-Aldrich) plates, and incubated at 35° C. for 24 hours. For antifungal testing, overnight colonies were adjusted to 1.5×10^3 cells/mL, hereafter referred to as the test inoculum. PrestoBlue® (Life Technologies, Invitrogen, Carlsbad, Calif.), a resazurin-based cell viability reagent that, in metabolically active cells, is reduced from blue, non-fluorescent resazurin, to red, fluorescent resorufin, was used to assess inhibition of yeast growth by the aurones. […] Following addition of aurone, plates were then incubated for 24 hours at 35° C. PrestoBlue was added to a final concentration of 10% in each well and fluorescence read at 560 nm excitation and 590 nm emission, per manufacturer instructions, using a SpectraMax M2e spectrophotometer (Molecular Devices, LLC, Sunnyvale, Calif.). To optimize the PrestoBlue reduction time, RFUs were collected at 15 minute intervals for 4 hours using a reference antifungal. […] IC50 determination was calculated using GraphPad Prism version 7.01 for Windows (GraphPad Software, Inc., La Jolla, Calif.) from the RFUs at dilution points. Calculations were made with a nonlinear regression after transforming the molar concentrations of the aurones into the logarithmic form. Graphing was accomplished utilizing the same program following a four parameter curve fitting sigmoidal plot of the data. All aurones and controls were tested in triplicate and all testing was repeated in at least three independent experiments.

[2] = system: Trypanosoma brucei brucei 427 cells; assay: T. brucei culture and assay (PrestoBlue); type: cell-based
[3] = system: Leishmania amazonensis promastigotes expressing beta-lactamase; assay: microbe, parasite or virus in culture; type: cell-based
Description: Leishmania amazonensis promastigotes expressing beta-lactamase (Buckner et al., Am. J. Trop. Med. Hyg. 72 (2005) 600-605. doi:72/5/600 [pii]) were cultured in RPMI supplemented with 10% fetal calf serum and 1% pen-strep-glut solution (Sigma) at 27° C. Stationary phase promastigotes were adjusted in fresh media, treated with compounds, and incubated at 37° C. At 24 hours, 100 uL of cultures was added to 50 uL of the CellTiter Glo® solution. Luminescence readings were taken with a spectrophotometer and used to calculate inhibition.

[4] = system: rat skeletal muscle cell line, L6; assay: cells; type: cell-based
Description: Cells were maintained in high glucose DMEM obtained from HyClone Laboratories (Logan, Utah) and supplemented with FCS and P/S at the same concentrations used for parasite culture. Cells were passaged every 3-4 days and maintained in a 37° C. humidified incubator in an atmosphere of 5% CO2. For assays. cells were detached, counted using a hemocytometer, and adjusted using fresh media to deliver 5×10^3 cells per well (90 μL) in black walled, flat clear bottom 96-well microtiter plates. After 3 h incubation for attachment, compounds diluted in culture medium were added (10 μL) to triplicate wells. Positive controls (cells treated with podophyllotoxin (Sigma, St. Louis, Mo.)), negative controls (untreated cells), solvent controls (DMSO) and media blanks were included on each plate. Following incubation for 71.5 h, 11 μL of PrestoBlue was added into each well.

[5] = system: Trypanosoma cruzi Tulahuen cells expressing beta-galactosidase; assay: T. cruzi intracellular assay (beta-galactosidase, L6 host cells); settings: for IC50: Trypanosoma cruzi, TULAHUEN
[6] = Trypanosoma brucei, Table 1, mean of 2(+) independent trials, read-out: IC50 T. brucei
[7] = Leishmania amazonensis, read-out: IC50 L. amaz.
[8] = Rattus norvegicus, Table 1, read-out: IC50 Toxicity (L6)
[9] = read-out: IC50 T. cruzi, Table 1, intracellular assay, mean of 2(+) trials (^c one trial)
[10] = read-out: IC50 T. cruzi, Table 2, intracellular assay, mean of 2(+) independent trials
[11] = Rattus norvegicus, Table 3B, weighted means of two or more independent trials, read-out: IC50 L6
[12] = read-out: IC50 TC-I, Table 3B, weighted means of two or more independent trials
[13] = Leishmania amazonensis, read-out: IC50 L. amaz. (footnote c: value obtained from one trial)
[14] = Rattus norvegicus, Table 3A, weighted means of two or more independent trials, read-out: IC50 L6
[15] = Table 1, intracellular T. cruzi IC50
[16] = Table 3A, estimated from highest L6 dose tested where no L6 IC50
[17] = read-out: IC50 TC-I, Table 3A, weighted means of two or more independent trials
[18] = Table 2, L6 IC50 / T. brucei IC50
[19] = Table 2, L6 IC50 / L. amazonensis IC50
[20] = Table 2, L6 mammalian cells, read-out: IC50 Toxicity (L6)
[21] = Table 2, L6 IC50 / T. cruzi IC50 (intracellular assay)
[22] = Table 3C, estimated from highest L6 dose tested where L6 IC50 not reached

COc1ccc2c(c1)O/C(=C\c1ccc(C#N)cc1)C2=O [Sample 5006]
inhibition at 100 µM [1]: 19.4%

O=C1/C(=C/c2c[nH]c3ccccc23)Oc2ccccc21 [Sample 9062]
inhibition at 100 µM [1]: 16.4%

O=C1/C(=C/c2ccc[nH]2)Oc2cc(O)ccc21 [Sample 2906]
inhibition at 100 µM [1]: 27.5%

O=C1/C(=C/c2cccc3[nH]ccc23)Oc2ccccc21 [Sample 9063]
inhibition at 100 µM [1]: 24%

COc1ccc2c(c1)O/C(=C\c1ccc[nH]1)C2=O [Aurone 5004]
C. albicans inhibition (at 100 μM) ([1]; Table 4A): 14.7%

O=C1/C(=C/c2ccc(CO)o2)Oc2ccccc21 [Sample 9067]
inhibition at 100 µM [1]: 17.6%

COc1ccc(/C=C2\Oc3c(ccc(O)c3O)C2=O)cc1O [Sample 1009]
inhibition at 100 µM [1]: 99.4%

O=C1/C(=C/c2cc(Br)cs2)Oc2ccccc21 [Sample 9061]
inhibition at 100 µM [1]: 3.1%

COc1cc(OC)c2c(c1)O/C(=C\c1ccc([N+](=O)[O-])cc1)C2=O [Sample 7001]
inhibition at 100 µM [1]: 12.6%

O=C1/C(=C/c2ccc[nH]2)Oc2ccccc21 [Sample 2021]
inhibition at 100 µM [1]: 78.8%

O=C1/C(=C/c2cccs2)Oc2c1ccc(O)c2O [Sample 1001]
inhibition at 100 µM [1]: 26%

COc1ccc(/C=C2\Oc3cc(O)ccc3C2=O)c(OC)c1OC [Sample 2912]
inhibition at 100 µM [1]: 54.8%

O=C1/C(=C/c2ccc(Br)cc2)Oc2c1ccc(O)c2O [Sample 1005]
inhibition at 100 µM [1]: 43.9%

COc1ccc2c(c1)O/C(=C\c1ccc[nH]1)C2=O [Aurone 5003]
inhibition at 100 µM [1]: 12.4%

COc1ccc(/C=C2\Oc3cc(O)ccc3C2=O)cc1O [Sample 2911]
inhibition at 100 µM [1]: 40%

CC(=O)N1/C(=C\c2ccc[nH]2)C(=O)c2ccccc21 [AA5A]
IC50 [2, 6]: 26.3 µM | IC50 [3, 7]: < 1 µM | IC50 [4, 8]: 39.8 µM | IC50 [5, 9]: 33.5 µM | IC50 [5, 10]: 33.5 µM

O=C1/C(=C/c2ncc[nH]2)Oc2ccccc21 [Aurone 2026, (Z)-2-((1H-imidazol-2-yl)methylene)benzofuran-3(2H)-one]
selectivity for T. brucei (L6/Tb) [2]: > 6.22 | IC50 [2, 6]: 16.1 µM | IC50 ([2]; Trypanosoma brucei, read-out: T. brucei IC50 dose): 16.1 µM | IC50 [3, 7]: < 1 µM | IC50 [4, 8]: > 100 µM | IC50 [4, 11]: > 100 µM | IC50 [5, 9]: 20.9 µM | IC50 [5, 10]: 20.9 µM | IC50 [5, 12]: 20.9 µM

CC(C)c1ccc(/C=C2\Oc3ccccc3C2=O)cc1 [Aurone 8002, (Z)-2-(4-isopropylbenzylidene)benzofuran-3(2H)-one]
IC50 [2, 6]: 43.4 µM | IC50 [3, 7]: 2.88 µM | IC50 [3, 13]: 2.88 µM | IC50 [4, 8]: 89 µM | IC50 [5, 9]: 16.6 µM | IC50 [5, 10]: 16.6 µM

Cc1ccc(/C=C2\Oc3cc(O)ccc3C2=O)cc1 [Sample 2904]
inhibition at 100 µM [1]: 20%

COc1ccc(/C=C2\Oc3cc(O)ccc3C2=O)c(OC)c1OC [Aurone 2912, (Z)-6-hydroxy-2-(2,3,4-trimethoxybenzylidene)benzofuran-3(2H)-one]
IC50 [2, 6]: > 50 µM | IC50 [3, 7]: 25.7 µM | IC50 [4, 8]: > 100 µM | IC50 [5, 9]: > 50 µM

O=C1/C(=C/c2ccccc2)Nc2ccccc21 [AA8]
IC50 [2, 6]: 11.7 µM | IC50 [3, 7]: < 1 µM | IC50 [4, 8]: > 100 µM | IC50 [5, 9]: 16.8 µM | IC50 [5, 10]: 16.8 µM

COc1cc(OC)c2c(c1)O/C(=C\c1cccc([N+](=O)[O-])c1)C2=O [Aurone 7001]
IC50 [2, 6]: > 50 µM | IC50 [3, 7]: 22 µM | IC50 [4, 8]: > 100 µM | IC50 [5, 9]: > 50 µM

O=C1/C(=C/c2cccc([N+](=O)[O-])c2)Oc2ccccc21 [Aurone 2015]
IC50 [2, 6]: 29.2 µM | IC50 [3, 7]: 1.71 µM | IC50 [4, 8]: 226 µM | IC50 [5, 9]: 22.6 µM | IC50 [5, 10]: 22.6 µM

O=C1/C(=C/c2ccc(F)cc2)Oc2ccccc21 [Aurone 9002, (Z)-2-(4-fluorobenzylidene)benzofuran-3(2H)-one]
IC50 [2, 6]: > 50 µM | IC50 [3, 7]: 39.3 µM | Selectivity L6/La ([3]; Table 1): >2.54 | IC50 [4, 8]: > 100 µM | IC50 [4, 14]: > 100 µM | Selectivity L6/Tc [5, 15]: >6.33 | Selectivity L6/TC-I [5, 16]: >6.33 | IC50 [5, 9]: 15.8 µM | IC50 [5, 17]: 15.8 µM

N#Cc1ccccc1/C=C1\Oc2ccccc2C1=O [Aurone 3007, (Z)-2-((3-oxobenzofuran-2(3H)-ylidene)methyl)benzonitrile]
IC50 [2, 6]: > 50 µM | IC50 [3, 7]: 17.6 µM | Selectivity L6/La ([3]; Table 1): >5.69 | IC50 [4, 8]: > 100 µM | IC50 [4, 14]: > 100 µM | Selectivity L6/Tc [5, 15]: >2.14 | Selectivity L6/TC-I [5, 16]: >2.14 | IC50 [5, 9]: 46.6 µM | IC50 [5, 17]: 46.6 µM

COc1ccc(/C=C2\Oc3cc(O)ccc3C2=O)cc1O [Aurone 2911, (Z)-6-hydroxy-2-(3-hydroxy-4-methoxybenzylidene)benzofuran-3(2H)-one]
IC50 [2, 6]: > 50 µM | IC50 [3, 7]: 6.51 µM | IC50 [4, 8]: 52.6 µM | IC50 [5, 9]: > 50 µM | IC50 [5, 10]: > 50 µM

COc1ccc(/C=C2\Oc3cc(O)ccc3C2=O)cc1 [Aurone 6620, (Z)-6-hydroxy-2-(4-methoxybenzylidene)benzofuran-3(2H)-one]
Selectivity L6/Tb ([2]; Table 1): >100 | Selectivity L6/Tb [2, 18]: >100 | IC50 ([2]; Table 2, mean of 2(+) independent trials, read-out: IC50 T. brucei): < 1 µM | IC50 [2, 6]: < 1 µM | IC50 [3, 7]: < 1 µM | IC50 [3, 13]: < 1 µM | Selectivity L6/La ([3]; Table 1): >100 | Selectivity L6/La [3, 19]: >100 | IC50 [4, 8]: > 100 µM | IC50 [4, 20]: > 100 µM | Selectivity L6/Tc [5, 15]: >2.85 | Selectivity L6/Tc [5, 21]: >2.85 | IC50 [5, 9]: 35.1 µM | IC50 [5, 10]: 35.1 µM

O=C1/C(=C/c2cnc[nH]2)Oc2ccccc21 [Aurone 6621, (Z)-2-((1H-imidazol-5-yl)methylene)benzofuran-3(2H)-one]
Selectivity L6/Tb ([2]; Table 1): >64.10 | Selectivity L6/Tb [2, 18]: >64.10 | IC50 ([2]; Trypanosoma brucei, read-out: IC50 TB): > 50 µM | IC50 [2, 6]: 1.56 µM | IC50 [3, 7]: > 50 µM | IC50 ([3]; read-out: IC50 L. amaz., Table 2, mean of 2(+) independent trials): > 50 µM | IC50 [4, 8]: > 100 µM | IC50 [4, 11]: > 100 µM | IC50 [4, 20]: > 100 µM | Selectivity L6/Tc [5, 15]: >5.45 | Selectivity L6/Tc [5, 21]: >5.45 | Selectivity L6/Tc-I ([5]; Table 3B, estimated from highest L6 dose tested where no L6 IC50): >5.45 | IC50 [5, 9]: 18.3 µM | IC50 [5, 10]: 18.3 µM | IC50 [5, 12]: 18.3 µM

O=C1/C(=C/c2ccc(/C=C3\Oc4ccccc4C3=O)cc2)Oc2ccccc21 [Aurone 6617, (2Z,2′Z)-2,2′-(1,4-phenylenebis(methanylylidene))bis(benzofuran-3(2H)-one)]
Selectivity L6/Tb ([2]; Table 1): >11.31 | Selectivity L6/Tb [2, 18]: >11.31 | Selectivity L6/Tb [2, 22]: >11.31 | IC50 [2, 6]: 35.4 µM | IC50 [3, 7]: 3.62 µM | Selectivity L6/La ([3]; Table 1): >110.50 | Selectivity L6/La [3, 19]: >110.50 | IC50 [4, 8]: > 400 µM | IC50 ([4]; Rattus norvegicus, Table 3C, weighted means of two or more independent trials, read-out: IC50 L6): > 400 µM | IC50 [4, 20]: > 400 µM | Selectivity L6/Tc [5, 15]: >10.22 | Selectivity L6/Tc [5, 21]: >10.22 | Selectivity L6/TC-I [5, 22]: >10.22 | IC50 [5, 9]: 39.1 µM | IC50 [5, 10]: 39.1 µM | IC50 ([5]; read-out: IC50 TC-I, Table 3C, intracellular T. cruzi, weighted means of two or more independent trials): 39.1 µM
